# What was measured:
# hCAR or Nrf2 = test: all curve and EC50 curve of selected compounds (FIG. 22-35); type: cell-based; design: key to Emax: fold activation; firefly luciferase normalized to Renilla; settings: figure legend values
# Protocol: Cell lysates were assayed for luciferase activity and normalized against the activity of the Renilla luciferase using a Dual-Luciferase Kit (Promega). […] Compound 2, DL7076, was selected for further evaluation based on its effects in activating hCAR and Nrf2 using the HepG2 cell reporter assay (FIGS. 37a-37c).
# hCAR = hCAR luciferase reporter assay in HepG2 cells (hCAR1+A, CYP2B6-2.2k reporter); type: cell-based, human
# Protocol: HepG2 cells were cultured in 24-well plates (1×10^5 cells/well) and transfected with either a hCAR1+A expression vector (30 ng/well), a CYP2B6-2.2k reporter (60 ng/well) reporter, and pRL-TK (10 ng/well) or a ARE expression vector using X-tremeGENE 9 DNA Transfection Reagent (Sigma-Aldrich). After an overnight transfection, cells were treated with a vehicle control (0.1% DMSO), RIF (10 μM), DL7076 (1 μM, 5 μM, and 10 μM) for 24 hours. Cell lysates were assayed for luciferase activity and normalized against the activity of the Renilla luciferase using a Dual-Luciferase Kit (Promega).
# HO-1 = HO-1 expression in H9c2 cardiomyocytes (RT-PCR, Western blot); type: cell-based, rat
# Protocol: Immortalized triple negative breast cancer cell lines MDA-MB-231 and BT549 were obtained from ATCC (Rockville, Md.). Additionally, the h9c2 cell line was purchased from ATCC (Rockville, Md.). […] Human iPSC-derived cardiomyocytes were maintained in Mtesr plus and supplemented according to protocol. These cells were treated for 2 hrs or an overnight as indicated. Following a 2 hr pretreatment, cells were co-treated with DOX at indicated concentrations for 6 or 22 hours. Following the overnight treatments, RNA or protein was isolated. HPH were seeded in collagen-coated 24 well plates and pretreated for 24 hrs. BT549 were seeded on inverted coverslips. After a 24 hr pretreatment, hepatocytes were co-administered as indicated and coverslips were inserted. The cell lines were used for less than 60 passages. After 24 h treatment, HPH, BT549, MDA-MB-231, and H9c2 cells were washed and a phenol-chloroform extraction was used to isolate total RNA with the TRIzol reagent (ThermoFisher, Rockford, Ill.). Reverse transcription was performed on extracted RNA (1 μg) to produce cDNA using the High Capacity cDNA Archive kit according to manufacturer's instructions (Applied Biosystems, Foster, Calif.). PCR was performed on an ABI StepOnePlus Real-Time PCR system (Applied Biosystems) using Fast SYBR Green Master Mix (Thermofisher, Rockford, Ill.) to determine gene expression changes. Primer sequences for CYP2B6, CYP3A4, HO-1, and glyceraldehyde-3-phosphate dehydrogenase (GAPDH) are: CYP2B6, [NT] ID NO: 1) and [NT] ID NO: 2); CYP3A4, [NT] ID NO: 3) and [NT] ID NO: 4); HO-1 [NT] ID NO: 5) and [NT] ID NO: 6) GAPDH, [NT] ID NO: 7) and [NT] ID NO: 8). Quantification of expression changes was done by the 2^ΔΔCt method, normalizing to GAPDH as the housekeeping gene and determining the fold change compared to control values (n=3). Protein was harvested using cell lysis buffer (Cell Signaling Technology, Danvers, Mass.) with a complete protease inhibitor cocktail (Roche, Mannheim, Germany) prior to homogenizing via sonification. […]
# Nrf2 = Nrf2 expression and nuclear translocation in H9c2 cardiomyocytes (Western blot); type: cell-based, rat
# From the text: Protein was harvested using cell lysis buffer (Cell Signaling Technology, Danvers, Mass.) with a complete protease inhibitor cocktail (Roche, Mannheim, Germany) prior to homogenizing via sonification. Homogenized protein from treated HPH, H9c2, BT549, and MDA-MB-231 cells were resolved on NuPage Novex Bis-Tris 4-12% gels (Life Technologies) or NuPage Novex Bis-Tris 12% gel and transferred through electrophoresis onto immobilon-P polyvinylidene difluoride (PVDF) membranes. Membranes were blocked with 5% BSA or 5% milk in Tris-Buffer saline with Tween 20 (TBST). Further, membranes were incubated with specific antibodies against human CYP2B6 (1:1000, Abcam), CYP3A4 (1:1000, Millipore Sigma), HO-1 (1:1000, Abcam), cleaved caspase-3 (1:1000 Cell Signaling Technologies), Nrf2 (1:1000, Abcam), TATA-Binding Protein (1:500, Santa Cruz) β-actin (1:3000, Millipore Sigma) at 4° C. overnight. Following overnight incubation, horseradish peroxidase goat anti-mouse or anti-rabbit IgG antibodies were used for secondary incubation. Membranes were developed using SuperSignal West Pico Chemiluminescent Substrate (Thermo Scientific) or Radiance Q (Azure). Two TNBC cell lines, cardiomyocytes, and HPH protein samples were isolated and resolved on a 4-12% or 12% SDS PAGE gel followed by electrophoretic transfer to a PVDF membrane. […]
# cleaved caspase-3 = test: Cleaved caspase-3 Western blot in H9c2 cardiomyocytes; type: cell-based, rat
# From the text: Protein was harvested using cell lysis buffer (Cell Signaling Technology, Danvers, Mass.) with a complete protease inhibitor cocktail (Roche, Mannheim, Germany) prior to homogenizing via sonification. Homogenized protein from treated HPH, H9c2, BT549, and MDA-MB-231 cells were resolved on NuPage Novex Bis-Tris 4-12% gels (Life Technologies) or NuPage Novex Bis-Tris 12% gel and transferred through electrophoresis onto immobilon-P polyvinylidene difluoride (PVDF) membranes. Membranes were blocked with 5% BSA or 5% milk in Tris-Buffer saline with Tween 20 (TBST). Further, membranes were incubated with specific antibodies against human CYP2B6 (1:1000, Abcam), CYP3A4 (1:1000, Millipore Sigma), HO-1 (1:1000, Abcam), cleaved caspase-3 (1:1000 Cell Signaling Technologies), Nrf2 (1:1000, Abcam), TATA-Binding Protein (1:500, Santa Cruz) β-actin (1:3000, Millipore Sigma) at 4° C. overnight. Following overnight incubation, horseradish peroxidase goat anti-mouse or anti-rabbit IgG antibodies were used for secondary incubation. Membranes were developed using SuperSignal West Pico Chemiluminescent Substrate (Thermo Scientific) or Radiance Q (Azure). Two TNBC cell lines, cardiomyocytes, and HPH protein samples were isolated and resolved on a 4-12% or 12% SDS PAGE gel followed by electrophoretic transfer to a PVDF membrane. Membranes were probed 1:1000 for CYP2B6, CYP3A4, Nrf2, cleaved caspase 3, and HO-1 using β-actin (1:3000) or TBP (1:500) as a loading control.
# MDA-MB-231 cells = test: Oxidative stress imaging (DFDA) in MDA-MB-231 cells; type: cell-based; settings: MDA-MB-231, DL7076 5 μM + DOX
structure (smiles),measurement,setting,value
"O=C(NCCN=C=S)c1c(-c2ccc3ccccc3c2)nc2sccn12 [DL7076, N-(2-Isothiocyanatoethyl)-6-(naphthalen-2-yl)imidazo[2,1-b]thiazole-5-carboxamide]",Emax,hCAR or Nrf2,2.5
same,EC50,hCAR or Nrf2; read-out: EC50,3.9 µM
same,"CAR1+A activation, luciferase reporter","hCAR; HepG2, 10 μM, 24 hours, vs CITCO 1 μM","activate CAR1+A in a comparable manner to the prototypical CAR activator, CITCO"
same,hCAR luciferase activity (efficacy among compound hybrids),"hCAR; HepG2, screening, FIG. 37a",highest efficacy
same,HO-1 mRNA induction,"HO-1; H9c2, 10 μM, 24 hours, vs vehicle control",3- to 3.5 fold
same,HO-1 protein induction,"HO-1; H9c2, Western blot",robust induction in the expression of HO-1 was confirmed at a protein level
same,HO-1 protein expression in the presence of DOX,"HO-1; H9c2, pretreatment, DOX 2.5 μM",concentration dependent protection in the expression of HO-1
same,Nrf2 nuclear accumulation,"Nrf2; nuclear extracts of H9c2, 1, 5, 10 μM",accumulating in a concentration dependent manner within the nucleus
same,Nrf2 expression,"Nrf2; whole H9c2 cell lysates, 1, 5, 10 μM",increased Nrf2 expression in a concentration dependent manner
same,cleaved caspase-3 expression with pretreatment,"cleaved caspase-3; H9c2, DL7076 pretreatment + DOX 2.5 μM",notably reduced in a concentration dependent manner
same,"cleaved caspase-3 expression, compound alone","cleaved caspase-3; H9c2, without DOX",no expression in cleaved caspase-3
same,ROS with cotreatment,MDA-MB-231 cells,significant ROS without reduction

# From patent US20230134760A1, “CAR AND NRF2 DUAL ACTIVATOR AGENTS FOR CYCLOPHOSPHAMIDE-BASED AND DOXORUBICIN-BASED TREATMENTS OF CANCER” (priority 2020, published 2023)
